These are literature values, as cited in US5831004A, “Inhibitors of metalloproteases, pharmaceutical compositions comprising same and methods of their use” (Affymax Technologies N.V., priority 1995, dated 1998).

For this data set, the target named is T1, human rheumatoid synovial collagenase (Homo sapiens, UniProt P03956).
T1 sequence (P03956 100-469): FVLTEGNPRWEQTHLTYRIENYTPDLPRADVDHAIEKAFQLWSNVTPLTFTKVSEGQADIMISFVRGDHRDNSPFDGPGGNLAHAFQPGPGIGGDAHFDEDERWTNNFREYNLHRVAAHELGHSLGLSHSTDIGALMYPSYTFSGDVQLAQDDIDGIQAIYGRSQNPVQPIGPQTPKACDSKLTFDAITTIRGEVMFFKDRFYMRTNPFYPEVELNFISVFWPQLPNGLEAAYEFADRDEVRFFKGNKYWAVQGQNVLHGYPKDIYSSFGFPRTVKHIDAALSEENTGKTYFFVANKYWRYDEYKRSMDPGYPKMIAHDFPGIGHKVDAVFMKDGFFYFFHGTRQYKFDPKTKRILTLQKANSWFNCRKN
The following applies: cited from earlier work.

The term IC50 denotes the concentration at which inhibition is half-maximal. As for `CNC(=O)[C@H](Cc1ccc(OC)cc1)NC(=O)[C@H](CC(C)C)NC(CCNC(=O)OCc1ccccc1)C(=O)O` (stereo partly drawn) [N-[3-(benzyloxy-carbonyl)amino-1-carboxy-n-propyl]-L-leucyl-O-methyl-L-tyrosine, N-methylamide], the half-inhibitory concentration (IC50) was < 8 µM.
